Reference: patent publication US20250134870A1, “PATHWAY MODULATOR, PHARMACEUTICAL COMPOSITION HAVING SAME, USE THEREOF, AND THERAPEUTIC METHOD USING SAME” (Jiangsu Yahong Meditech Co., Ltd., priority 2021, published 2025)

Experiments:
[1] = tested on: dextran sulfate sodium (DSS)-induced colitis; experiment: DSS-induced colitis in mice, 3.1% DSS: body weight change and DAI (Example 11); assay type: in vivo, C57BL/6 mice; conditions: 50 mg/kg, QD
Description: The experimental mice were housed in an SPF grade animal room for three days for adaptation, and randomly divided into 7 groups (6 model groups and 1 control group) of 10 mice in each group. Dosing of mice started on Day 0 and ended on Day 7.
The mouse enteritis model of this Example was established by DSS induction: mice in the model group were provided with a 3.1% DSS (dextran sulfate sodium, molecular weight 36,000-50,000) aqueous solution from Day 0 to Day 7, and the DSS aqueous solution was replaced with freshly prepared solution every day to prevent degradation. Mice in the normal control group were provided with normal water. The experimental period was 9 days, and the mice were euthanized and samples were collected at the experimental endpoint.
The DAI score was assessed daily. The DAI score consisted of 3 parts: body weight change, stool characteristics, and hematochezia (or occult blood) score, and the specific scoring criteria were as shown in Table 49. The DAI scoring of all mice was done by the same staff throughout the experiment.
Mice were euthanized at the experimental endpoint. The colon of mice was dissected, and photograph was taken, the length was measured, and the contents were removed before weighing.
The data were expressed as mean±standard error (X±s). Body weight change and disease activity score were statistically analyzed by two-way ANOVA and comparison between groups were performed by Dunnett's test. Other data were statistically analyzed by one-way ANOVA and comparison between groups were performed by Dunnett's test. All analyses were performed using GraphPad Prism software. * P<0.05, ** P<0.01, *** P<0.005, **** P<0.0001 vs. solvent group.

[2] = tested on: IRBP R16-induced experimental autoimmune uveoretinitis (EAU); experiment: Bovine IRBP R16-induced experimental autoimmune uveoretinitis (EAU): clinical score, AUC, incidence (Example 6); assay type: in vivo, Lewis rats
Method: On Day-1 (i.e., the day before immunization, hereinafter), 60 rats were randomly divided into 6 groups (n=10) based on body weight (see Table 18). On Day 0, rats in Groups 2 to 6 were anesthetized with isoflurane, followed by subcutaneous injection of a total of […] of emulsion resulting from IRBP R16 and CFA emulsified at a 1:1 v/v ratio, on both thighs (50 μL at each site) and tail head (100 μL), respectively.
From Day 0 after immunization, the eyes of rats were checked daily with a flashlight by gently opening the upper and lower eyelids of the test rats, and the incidence of disease was recorded. Clinical symptoms were scored in a blind manner from the onset of disease to the end of the study according to the criteria listed in Table 17.
Dosing started from Day 0 accurately according to the animal body weight for a total of 16 days.
The results were expressed as “mean±standard error”. Graphpad Prism or SPSS was used for statistical analysis, and p<0.05 was considered statistically significant.

[3] = tested on: 2,4-dinitrobenzenesulfonic acid (DNBS)-induced colitis; experiment: DNBS-induced colitis in rats: pathological score of colon tissue (H&E); assay type: in vivo, Wistar rats
Description: The proximal, ulcer (corresponding sites can be taken, if there was no ulcer) and distal parts of the colon tissue fixed by neutral buffered formalin were embedded with paraffin, sectioned (thickness 5 μm), and histopathological score was given by H&E staining.

[4] = mean, G5 Test group 2#, 10 mg/kg PO QD × 7

NCc1c[nH]c(=S)n1[C@H]1CCc2c(F)cc(F)cc2C1 [Nepicastat]
symptoms caused by DSS-induced colitis (body weight loss, diarrhea, hematochezia) [1]: effectively alleviated the symptoms of body weight loss, diarrhea and hematochezia | DSS-induced body weight loss ([1]; vs solvent group): effectively alleviated DSS-induced body weight loss | disease activity score (DAI) ([1]; vs solvent group): significantly lower than that in the solvent group | Area under the curve (AUC) of clinical score ([2]; 25 mg/kg PO QD × 16 days): 45.30 | Area under the curve (AUC) of clinical score ([2]; 50 mg/kg PO QD × 16 days): 39.65 | Area under the curve (AUC) of clinical score ([2]; 100 mg/kg PO QD × 16 days): 37.65 | symptoms of uveitis, EAU clinical score and clinical score AUC ([2]; 25, 50 and 100 mg/kg PO QD × 16 days): moderately ameliorate the symptoms of uveitis and reduced the EAU clinical score and clinical score AUC, but this effect was not statistically significant | Incidence rate (%) ([2]; Day 0, 25 mg/kg PO QD): 0% | Incidence rate (%) ([2]; Day 0, 50 mg/kg PO QD): 0% | Incidence rate (%) ([2]; Day 0, 100 mg/kg PO QD): 0% | Incidence rate (%) ([2]; Day 1, 25 mg/kg PO QD): 0% | Incidence rate (%) ([2]; Day 1, 50 mg/kg PO QD): 0% | Incidence rate (%) ([2]; Day 1, 100 mg/kg PO QD): 0% | Incidence rate (%) ([2]; Day 2, 25 mg/kg PO QD): 0% | Incidence rate (%) ([2]; Day 2, 50 mg/kg PO QD): 0% | Incidence rate (%) ([2]; Day 2, 100 mg/kg PO QD): 0% | Incidence rate (%) ([2]; Day 3, 25 mg/kg PO QD): 0% | Incidence rate (%) ([2]; Day 3, 50 mg/kg PO QD): 0% | Incidence rate (%) ([2]; Day 3, 100 mg/kg PO QD): 0% | Incidence rate (%) ([2]; Day 4, 25 mg/kg PO QD): 0% | Incidence rate (%) ([2]; Day 4, 50 mg/kg PO QD): 0% | Incidence rate (%) ([2]; Day 4, 100 mg/kg PO QD): 0% | Incidence rate (%) ([2]; Day 5, 25 mg/kg PO QD): 70% | Incidence rate (%) ([2]; Day 5, 50 mg/kg PO QD): 70% | Incidence rate (%) ([2]; Day 5, 100 mg/kg PO QD): 80% | Incidence rate (%) ([2]; Day 6, 25 mg/kg PO QD): 100% | Incidence rate (%) ([2]; Day 6, 50 mg/kg PO QD): 100% | Incidence rate (%) ([2]; Day 6, 100 mg/kg PO QD): 80% | Incidence rate (%) ([2]; Day 7, 25 mg/kg PO QD): 70% | Incidence rate (%) ([2]; Day 7, 50 mg/kg PO QD): 100% | Incidence rate (%) ([2]; Day 7, 100 mg/kg PO QD): 50% | Incidence rate (%) ([2]; Day 8, 25 mg/kg PO QD): 100% | Incidence rate (%) ([2]; Day 8, 50 mg/kg PO QD): 100% | Incidence rate (%) ([2]; Day 8, 100 mg/kg PO QD): 100% | Incidence rate (%) ([2]; Day 9, 25 mg/kg PO QD): 100% | Incidence rate (%) ([2]; Day 9, 50 mg/kg PO QD): 100% | Incidence rate (%) ([2]; Day 9, 100 mg/kg PO QD): 100% | Incidence rate (%) ([2]; Day 10, 25 mg/kg PO QD): 100% | Incidence rate (%) ([2]; Day 10, 50 mg/kg PO QD): 100% | Incidence rate (%) ([2]; Day 10, 100 mg/kg PO QD): 100% | Incidence rate (%) ([2]; Day 11, 25 mg/kg PO QD): 100% | Incidence rate (%) ([2]; Day 11, 50 mg/kg PO QD): 100% | Incidence rate (%) ([2]; Day 11, 100 mg/kg PO QD): 100% | Incidence rate (%) ([2]; Day 12, 25 mg/kg PO QD): 100% | Incidence rate (%) ([2]; Day 12, 50 mg/kg PO QD): 100% | Incidence rate (%) ([2]; Day 12, 100 mg/kg PO QD): 100% | Incidence rate (%) ([2]; Day 13, 25 mg/kg PO QD): 100% | Incidence rate (%) ([2]; Day 13, 50 mg/kg PO QD): 100% | Incidence rate (%) ([2]; Day 13, 100 mg/kg PO QD): 100% | Incidence rate (%) ([2]; Day 14, 25 mg/kg PO QD): 100% | Incidence rate (%) ([2]; Day 14, 50 mg/kg PO QD): 100% | Incidence rate (%) ([2]; Day 14, 100 mg/kg PO QD): 100% | Incidence rate (%) ([2]; Day 15, 25 mg/kg PO QD): 100% | Incidence rate (%) ([2]; Day 15, 50 mg/kg PO QD): 100% | Incidence rate (%) ([2]; Day 15, 100 mg/kg PO QD): 100% | Incidence rate (%) ([2]; Day 16, 25 mg/kg PO QD): 100% | Incidence rate (%) ([2]; Day 16, 50 mg/kg PO QD): 100% | Incidence rate (%) ([2]; Day 16, 100 mg/kg PO QD): 100% | Incidence rate (%) ([2]; Day −1, 25 mg/kg PO QD): 0% | Incidence rate (%) ([2]; Day −1, 50 mg/kg PO QD): 0% | Incidence rate (%) ([2]; Day −1, 100 mg/kg PO QD): 0% | inhibition at 25 mg/kg ([2]; Rattus norvegicus, 384 h, 25 mg/kg PO QD × 16 days, vs model control, read-out: Inhibition rate of clinical score AUC): 8.67% | inhibition at 50 mg/kg ([2]; Rattus norvegicus, 384 h, 50 mg/kg PO QD × 16 days, vs model control, read-out: Inhibition rate of clinical score AUC): 20.1% | inhibition at 100 mg/kg ([2]; Rattus norvegicus, 384 h, 100 mg/kg PO QD × 16 days, vs model control, read-out: Inhibition rate of clinical score AUC): 24.1% | total score of colon tissue injury ([3]; 10 mg/kg (Test group 2#)): significantly reduce | Pathological score, Distal end, Damage [3, 4]: 0.93 | Pathological score, Distal end, Inflammation [3, 4]: 2.07 | Pathological score, Proximal end, Damage [3, 4]: 0.47 | Pathological score, Proximal end, Inflammation [3, 4]: 1.60 | Pathological score, Total score, Damage [3, 4]: 3.53 | Pathological score, Total score, Inflammation [3, 4]: 6.07 | Pathological score, Ulcer end, Damage [3, 4]: 2.13 | Pathological score, Ulcer end, Inflammation [3, 4]: 2.40
